Data: US20080102497A1, “ENZYMATIC HYDROLYSIS OF STARCH” (priority 2006, published 2008)
Where two headings read alike, the source gives them in different places.

What was measured:
[1] = target: T1, glucoamylase from Aspergillus Niger (Aspergillus niger, UniProt P69328); conditions: cooked dent corn starch 0.5%, pH 5.2, 37° C., 10 min
Procedure: (§1) The separate reaction mixtures were incubated at 37° C. for 10 minutes. The control reaction mixtures contained enzyme, buffer, and starch but no manganese ion. The starch hydrolysis reaction was stopped by combining the reaction mixture with a solution containing DNSA and heating for 30 min at 85° C. The absorbance of the control and test samples was measured at 562 nm to monitor the amount of reducing sugar in each sample.

β-amylase from barley = β-amylase from barley (Hordeum vulgare, UniProt P16098); test: hydrolysis of cooked dent corn starch; format: biochemical; conditions: cooked dent corn starch 0.5%, pH 5.2, 37° C., 10 min
Sequence of β-amylase from barley (P16098 whole entry): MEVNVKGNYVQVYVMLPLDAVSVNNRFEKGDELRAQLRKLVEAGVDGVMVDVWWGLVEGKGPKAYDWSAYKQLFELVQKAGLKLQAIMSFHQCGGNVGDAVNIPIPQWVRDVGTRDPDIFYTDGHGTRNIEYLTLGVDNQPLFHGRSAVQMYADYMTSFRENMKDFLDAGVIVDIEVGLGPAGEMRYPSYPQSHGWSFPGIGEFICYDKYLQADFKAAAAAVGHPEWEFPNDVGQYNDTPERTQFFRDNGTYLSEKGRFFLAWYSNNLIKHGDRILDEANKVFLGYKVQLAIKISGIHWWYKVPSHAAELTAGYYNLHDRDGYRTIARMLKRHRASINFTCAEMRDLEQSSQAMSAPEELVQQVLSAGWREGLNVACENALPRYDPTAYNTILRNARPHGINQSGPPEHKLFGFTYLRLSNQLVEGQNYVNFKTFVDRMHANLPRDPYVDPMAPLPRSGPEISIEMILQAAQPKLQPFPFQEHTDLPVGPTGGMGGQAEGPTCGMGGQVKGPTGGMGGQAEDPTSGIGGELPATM

[2] = tested on: enzyme mixture of purified glucoamylase from mushroom and purified α-amylase from barley; test: hydrolysis of raw corn starch by enzyme mixture, reducing sugar by DNSA; format: biochemical; conditions: summary of Table 2
Procedure: Enzyme mixture was also pre-incubated with 10 mM Fe^++, Cu^++, Ca^++, Mg^++, or disodium ethylenediamine-tetraacetic acid (EDTA). Thereafter, 40 μl of each pre-incubation solution was added to 15 mg raw corn starch, and the reaction mixture incubated at 37° C. for 20 minutes. The control reaction mixture contained substrate, enzyme, and buffer but no additional metal ions. The starch hydrolysis reaction was stopped by combining the reaction mixture with a solution containing 3,5 dinitrosalicylic acid (DNSA) and heating for 30 min at 85° C. The absorbance of the control and test samples was measured at 562 nm to monitor the amount of reducing sugar in each sample.

[3] = target: α-amylase from Aspergillus oryzae (Aspergillus oryzae, UniProt P0C1B3); test: hydrolysis of raw corn starch, reducing sugar by DNSA; format: biochemical; conditions: for Relative Activity: raw corn starch, pH 5.3, 37° C., 20 min
Description: (§2) The α-amylase from Aspergillus oryzae and the glucoamylase from Rhizopus sp.

[4] = tested on: glucoamylase from Rhizopus sp.; test: as above; format: biochemical; conditions: for Relative Activity: raw corn starch, pH 5.3, 37° C., 20 min
Description: as §2

[5] = target: α-amylase from Bacillus licheniformis (Bacillus licheniformis, UniProt P06278); test: hydrolysis of cooked starches from different botanical sources; format: biochemical; conditions: pH 5.2, 37° C., 10 min
Sequence of α-amylase from Bacillus licheniformis (P06278 30-512): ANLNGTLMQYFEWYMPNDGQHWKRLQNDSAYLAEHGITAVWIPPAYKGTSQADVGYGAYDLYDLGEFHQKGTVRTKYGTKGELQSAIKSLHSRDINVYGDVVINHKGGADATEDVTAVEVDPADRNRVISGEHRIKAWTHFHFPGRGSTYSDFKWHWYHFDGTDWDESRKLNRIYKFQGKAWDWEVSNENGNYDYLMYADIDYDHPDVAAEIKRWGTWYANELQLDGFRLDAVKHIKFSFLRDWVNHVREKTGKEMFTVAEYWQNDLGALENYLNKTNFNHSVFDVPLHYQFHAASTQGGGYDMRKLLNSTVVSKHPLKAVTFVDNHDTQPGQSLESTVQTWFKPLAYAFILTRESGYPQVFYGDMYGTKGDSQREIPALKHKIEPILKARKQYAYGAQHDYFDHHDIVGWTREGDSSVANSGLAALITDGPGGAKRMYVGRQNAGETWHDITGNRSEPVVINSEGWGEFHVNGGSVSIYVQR
Procedure: The control reaction mixture contained enzyme, buffer, and starch but no manganese ion. The starch hydrolysis reaction was stopped by combining the reaction mixture with 3,5 dinitrosalicylic acid (DNSA) and heating for 30 min at 85° C. The absorbance of the control and test samples was measured at 562 nm to monitor the amount of reducing sugar in each sample.

[6] = target: T2, β-amylase from sweet potato (Ipomoea batatas, UniProt P10537); test: hydrolysis of raw corn starch or soluble starch; format: biochemical; conditions: for % Relative Activity: pH 5.3, 37° C., 20 min
T2 construct: purchased Sigma A-7005
T2 sequence (P10537 whole entry): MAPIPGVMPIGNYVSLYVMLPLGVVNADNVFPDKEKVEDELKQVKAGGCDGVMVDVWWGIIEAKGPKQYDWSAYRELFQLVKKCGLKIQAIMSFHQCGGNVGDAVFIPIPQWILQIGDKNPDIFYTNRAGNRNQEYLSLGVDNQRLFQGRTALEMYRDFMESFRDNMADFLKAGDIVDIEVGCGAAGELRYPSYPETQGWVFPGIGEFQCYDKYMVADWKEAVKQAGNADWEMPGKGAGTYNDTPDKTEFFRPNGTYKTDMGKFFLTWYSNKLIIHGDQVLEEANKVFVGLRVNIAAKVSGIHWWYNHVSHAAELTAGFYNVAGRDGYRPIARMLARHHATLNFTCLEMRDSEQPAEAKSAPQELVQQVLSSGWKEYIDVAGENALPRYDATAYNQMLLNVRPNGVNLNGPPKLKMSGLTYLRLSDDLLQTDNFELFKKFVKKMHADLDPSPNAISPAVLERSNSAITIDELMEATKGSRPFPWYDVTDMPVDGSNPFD
Procedure: Each of the buffered enzyme solutions was separately added to 15 mg raw corn starch or 0.6 mg soluble starch, and the reaction mixtures incubated at 37° C. for 20 minutes. The control reaction mixture contained substrate, enzyme, and buffer but no manganese ion. The starch hydrolysis reaction was stopped by combining the reaction mixture with a solution containing DNSA and heating for 30 min at 85° C. The absorbance of the control and test samples was measured at 562 nm to monitor the amount of reducing sugar in each sample.

[7] = tested on: glucoamylase from Rhizopus sp.; test: temperature effect on conversion of raw corn starch; format: biochemical; conditions: 1 mM Mn^++; for % Conversion: 10 min, raw corn starch, pH 5.3
Procedure: An enzyme solution of the glucoamylase from Rhizopus sp. […] Thereafter, 50 μl of the enzyme solution was added to each of four samples containing 15 mg raw corn starch and incubated at 22° C., 32° C., 40° C. or 50° C., respectively, for 10 minutes.

[8] = target: T1, glucoamylase from Aspergillus Niger; conditions: pH 5.2, 37° C., 10 min
Procedure: as §1, with “control reaction mixture contained enzyme,” for “control reaction mixtures contained enzyme,”

[9] = target: T3, α-amylase from human saliva (Homo sapiens, UniProt P0DUB6); test: hydrolysis of cooked dent corn starch; format: biochemical; conditions: cooked dent corn starch 0.5%, pH 5.2, 37° C., 10 min
T3 construct: the α-amylase from human saliva; from tissue; host or cells: human saliva
T3 sequence (P0DUB6 16-511): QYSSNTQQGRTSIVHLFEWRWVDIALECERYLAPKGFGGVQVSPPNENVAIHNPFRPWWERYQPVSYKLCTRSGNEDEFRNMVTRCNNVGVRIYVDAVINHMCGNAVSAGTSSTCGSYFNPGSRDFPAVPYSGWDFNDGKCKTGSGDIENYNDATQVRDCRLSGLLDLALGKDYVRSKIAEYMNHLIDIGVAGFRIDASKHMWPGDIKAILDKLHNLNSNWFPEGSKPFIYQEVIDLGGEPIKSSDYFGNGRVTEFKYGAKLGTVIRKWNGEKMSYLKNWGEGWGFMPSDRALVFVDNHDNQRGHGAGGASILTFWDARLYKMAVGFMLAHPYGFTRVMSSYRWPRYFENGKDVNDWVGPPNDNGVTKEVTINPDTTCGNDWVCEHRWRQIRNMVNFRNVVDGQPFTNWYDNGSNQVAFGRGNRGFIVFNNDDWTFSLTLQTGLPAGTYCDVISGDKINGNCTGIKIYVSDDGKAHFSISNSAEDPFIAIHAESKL

T1 sequence (P69328 25-640): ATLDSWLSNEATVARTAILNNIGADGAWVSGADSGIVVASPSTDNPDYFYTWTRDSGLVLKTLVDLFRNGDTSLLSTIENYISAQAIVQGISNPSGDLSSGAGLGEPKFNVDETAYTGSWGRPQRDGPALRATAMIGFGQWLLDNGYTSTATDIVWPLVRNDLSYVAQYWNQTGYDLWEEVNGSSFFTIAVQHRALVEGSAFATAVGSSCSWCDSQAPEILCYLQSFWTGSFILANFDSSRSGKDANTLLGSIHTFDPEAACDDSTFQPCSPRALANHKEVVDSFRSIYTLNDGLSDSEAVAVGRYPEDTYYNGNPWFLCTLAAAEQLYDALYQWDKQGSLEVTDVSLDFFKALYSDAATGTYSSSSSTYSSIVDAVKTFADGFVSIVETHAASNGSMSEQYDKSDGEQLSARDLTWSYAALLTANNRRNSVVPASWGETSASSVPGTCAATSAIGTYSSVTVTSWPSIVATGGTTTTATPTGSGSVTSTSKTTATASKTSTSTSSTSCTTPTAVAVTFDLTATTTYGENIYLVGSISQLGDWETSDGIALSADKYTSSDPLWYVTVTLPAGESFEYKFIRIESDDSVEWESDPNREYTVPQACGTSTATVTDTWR

## [Mn+2] [Mn^++, manganese ions]
[1]; 0.01 mM Mn^++
  Relative Activity: 113.3%
[1]; 0.1 mM Mn^++
  Relative Activity: 126.1%
[1]; 1 mM Mn^++
  Relative Activity: 148.4%
[1]; 10 mM Mn^++
  Relative Activity: 186.9%
β-amylase from barley; 0.01 mM Mn^++
  Relative Activity: 123.5%
β-amylase from barley; 0.1 mM Mn^++
  Relative Activity: 135.3%
β-amylase from barley; 1 mM Mn^++
  Relative Activity: 149.8%
β-amylase from barley; 10 mM Mn^++
  Relative Activity: 210.1%
[2]
  effect on hydrolysis of raw corn starch (in words): enhances the hydrolysis of raw corn starch
[3]; 0.01 mM Mn^++
  Relative Activity: 106.6%
[3]; 0.1 mM Mn^++
  Relative Activity: 125.5%
[3]; 1 mM Mn^++
  Relative Activity: 136.7%
[3]; 10 mM Mn^++
  Relative Activity: 155.6%
[3]; summary of Table 3
  effect on hydrolysis of raw corn starch (in words): enhances the hydrolysis of raw corn starch
[4]; 0.01 mM Mn^++
  Relative Activity: 105.0%
[4]; 0.1 mM Mn^++
  Relative Activity: 119.2%
[4]; 1 mM Mn^++
  Relative Activity: 133.5%
[4]; 10 mM Mn^++
  Relative Activity: 162.6%
[4]; summary of Table 3
  effect on hydrolysis of raw corn starch (in words): enhances the hydrolysis of raw corn starch
[5]; 0.01 mM Mn^++, cooked potato starch 0.5%
  Relative Activity: 109.9%
[5]; 0.01 mM Mn^++, cooked rice starch 0.5%
  Relative Activity: 115.5%
[5]; 0.01 mM Mn^++, cooked soluble potato starch 0.5%
  Relative Activity: 118.3%
[5]; 0.1 mM Mn^++, cooked barley starch 0.5%
  Relative Activity: 129.2%
[5]; 0.1 mM Mn^++, cooked pea starch 0.5%
  Relative Activity: 129.5%
[5]; 0.1 mM Mn^++, cooked potato starch 0.5%
  Relative Activity: 117.5%
[5]; 0.1 mM Mn^++, cooked rice starch 0.5%
  Relative Activity: 126.0%
[5]; 0.1 mM Mn^++, cooked soluble potato starch 0.5%
  Relative Activity: 147.6%
[5]; 0.1 mM Mn^++, cooked tapioca starch 0.5%
  Relative Activity: 119.2%
[5]; 0.1 mM Mn^++, cooked wheat starch 0.5%
  Relative Activity: 118.2%
[5]; 1 mM Mn^++, cooked pea starch 0.5%
  Relative Activity: 143.9%
[5]; 1 mM Mn^++, cooked potato starch 0.5%
  Relative Activity: 128.7%
[5]; 1 mM Mn^++, cooked rice starch 0.5%
  Relative Activity: 129.6%
[5]; 1 mM Mn^++, cooked soluble potato starch 0.5%
  Relative Activity: 142.0%
[5]; 1 mM Mn^++, cooked tapioca starch 0.5%
  Relative Activity: 121.5%
[5]; 1 mM Mn^++, cooked wheat starch 0.5%
  Relative Activity: 153.0%
[5]; 10 mM Mn^++, cooked barley starch 0.5%
  Relative Activity: 142.2%
[5]; 10 mM Mn^++, cooked pea starch 0.5%
  Relative Activity: 182.3%
[5]; 10 mM Mn^++, cooked potato starch 0.5%
  Relative Activity: 160.2%
[5]; 10 mM Mn^++, cooked rice starch 0.5%
  Relative Activity: 157.7%
[5]; 10 mM Mn^++, cooked wheat starch 0.5%
  Relative Activity: 142.1%
[6]; 0.01 mM Mn^++, raw corn starch
  % Relative Activity: 113.9%
[6]; 0.01 mM Mn^++, soluble starch
  % Relative Activity: 108.6%
[6]; 0.1 mM Mn^++, raw corn starch
  % Relative Activity: 106.6%
[6]; 0.1 mM Mn^++, soluble starch
  % Relative Activity: 127.1%
[6]; 1 mM Mn^++, raw corn starch
  % Relative Activity: 136.5%
[6]; 1 mM Mn^++, soluble starch
  % Relative Activity: 146.6%
[6]; 10 mM Mn^++, raw corn starch
  % Relative Activity: 160.6%
[6]; 10 mM Mn^++, soluble starch
  % Relative Activity: 176.3%
[6]; raw corn starch and soluble starch
  effect on hydrolysis of starch (in words): enhances the hydrolysis of both raw corn starch and soluble starch
[7]; 22-50° C.
  temperature dependence of Mn^++ activation (in words): occurs at a wide temperature range
[7]; 22° C.
  % Conversion: 0.026%
[7]; 32° C.
  % Conversion: 0.064%
[7]; 40° C.
  % Conversion: 0.152%
[7]; 50° C.
  % Conversion: 0.274%
[8]; 0.01 mM Mn^++, cooked dent corn starch 0.5%
  Relative Activity: 113.3%
[8]; 0.01 mM Mn^++, cooked high-amylose V corn starch 0.5%
  Relative Activity: 119.2%
[8]; 0.01 mM Mn^++, cooked soluble corn starch 0.5%
  Relative Activity: 119.1%
[8]; 0.01 mM Mn^++, cooked waxy corn starch 0.5%
  Relative Activity: 113.0%
[8]; 0.1 mM Mn^++, cooked dent corn starch 0.5%
  Relative Activity: 126.1%
[8]; 0.1 mM Mn^++, cooked high-amylose V corn starch 0.5%
  Relative Activity: 130.9%
[8]; 0.1 mM Mn^++, cooked soluble corn starch 0.5%
  Relative Activity: 129.1%
[8]; 0.1 mM Mn^++, cooked waxy corn starch 0.5%
  Relative Activity: 130.1%
[8]; 1 mM Mn^++, cooked dent corn starch 0.5%
  Relative Activity: 148.4%
[8]; 1 mM Mn^++, cooked high-amylose V corn starch 0.5%
  Relative Activity: 141.3%
[8]; 1 mM Mn^++, cooked soluble corn starch 0.5%
  Relative Activity: 144.8%
[8]; 1 mM Mn^++, cooked waxy corn starch 0.5%
  Relative Activity: 147.2%
[8]; 10 mM Mn^++, cooked dent corn starch 0.5%
  Relative Activity: 186.9%
[8]; 10 mM Mn^++, cooked high-amylose V corn starch 0.5%
  Relative Activity: 193.1%
[8]; 10 mM Mn^++, cooked soluble corn starch 0.5%
  Relative Activity: 178.3%
[8]; 10 mM Mn^++, cooked waxy corn starch 0.5%
  Relative Activity: 200.3%
[9]; 0.01 mM Mn^++
  Relative Activity: 120.2%
[9]; 0.1 mM Mn^++
  Relative Activity: 147.5%
[9]; 1 mM Mn^++
  Relative Activity: 224.4%
[9]; 10 mM Mn^++
  Relative Activity: 275.6%
